Key:
[1] = Estimated solubility of menadione in single solvents; format: physicochemical
Procedure: This study focused on evaluating the solubility properties of menadione in hydrophilic and lipophilic excipients used in topical pharmaceutical products. Initially, solubility studies were conducted in single solvents.

[2] = Menadione compatibility with single solvent systems (1% w/w solutions, 1 month storage); format: physicochemical
Procedure: Based on the single solvent solubility data, a menadione compatibility study with selected solvents was conducted. Solutions containing 1% w/w of menadione were prepared, packaged in borosilicate clear glass vials, wrapped in aluminum foil and stored at 5° C. (dark), 25° C. (dark), and 40° C. (dark) for a period of 1 month. The physico-chemical properties of the 1% menadione single solvent solutions are presented in: Table 2.

[3] = In vitro percutaneous absorption of (14C)-Menadione Study #2, abraded skin; format: in vitro ADME, human; settings: abraded skin versus normal skin
Procedure: Percutaneous absorption of (^14C)-Menadione was also evaluated using abraded human skin in the lead formulation at 0.05, 0.1, and 0.2% Menadione and the backup formulation at 0.2% Menadione. Abraded skin was evaluated as a possible simulation of the type of broken and/or compromised skin that may be present in the case of a skin rash caused by an EGFR inhibitor. The respective skin permeation values are presented in: Table 18.

EGFR-mediated signaling = settings: topical application, secondary to systemic erlotinib and cetuximab; cited from earlier work
[4] = tested on: EGFR and other growth factor-related phosphatase; settings: cited from earlier work

Estimated Solubility ([1]; in Benzyl Alcohol): Greater than 10% w/w | Estimated Solubility ([1]; in Dimethyl Isosorbide): Greater than 10% w/w | Estimated Solubility ([1]; in Mineral Oil): Less than 0.1% w/w | Estimated Solubility ([1]; in Polyethylene Glycol 400): Greater than 2% w/w | Estimated Solubility ([1]; in Propylene Glycol): Less than 1% w/w | Estimated Solubility ([1]; in Purified Water): Less than 0.04% w/w | Compatibility of menadione with solvent (physical appearance and potency by HPLC) ([2]; caprylic/capric triglyceride, diethyl sebacate, diisopropyl adipate, isopropyl myristate, 1 month at 5, 25, 40° C. dark): compatible | Compatibility of menadione with solvent (discoloration) ([2]; dimethyl isosorbide, transcutol and polyethylene glycol 400, all conditions evaluated): signs of incompatibility | Epidermal levels of the drug [3]: lower
SMILES: CC1=CC(=O)c2ccccc2C1=O [Menadione, 2-methyl-1,4-naphthoquinone]
EGFR-mediated signaling in human skin (EGFR-mediated signaling): restore EGFR-mediated signaling | EGF activating activity [4]: direct EGF activating activity | EGFR and other growth factor-related phosphatase inhibitory activity [4]: inhibitory activity

From patent US8815953B2, “Formulations of vitamin K analogs for topical use” (Spectrum Pharmaceuticals, Inc., priority 2008, dated 2014)
